What follows are compounds tested against human BTK (Homo sapiens (Human), UniProt Q06187) (assay: BTK inhibition: BTK-mediated phosphorylation of FAM-labeled substrate 5-FAM-[…]-NH2 (Caliper LC-3000)). Settings: read-out: BTK Inhibition (pIC50) (converted).
Assay type: biochemical
Excerpt: The activity of compounds as BTK inhibitors may be determined by a variety of methods, including in vitro and in vivo methods.
This construct engineers an in-frame translational fusion with the Glutathione-S-Transferase (GST) protein for use in affinity purification. The fusion protein derived from this construct contains a protease recognition sequence to liberate the BTK from the GST affinity tag. High-titer baculoviral stocks, generated using the Bac-to-Bac® system (Invitrogen), are used to express the recombinant protein in Spodoptera frugiperda Sf9 cells in 10 L Wave bags. Recombinant proteins are isolated from cellular extracts by passage over Glutathione Sepharose 4B (GE Healthcare) and the BTK moiety is released from the GST affinity tag by treatment with PreScission protease. The BTK recombinant protein is further purified by size exclusion chromatography (HiLoad 16/60 Superdex 200, GE Healthcare) in a buffer containing 20 mM Hepes (pH 7.4), 50 mM NaCl, 10 mM MgCl2, 0.25 mM TCEP and 0.1 mM EDTA. The purity of the fractions is assessed by SDS PAGE and the peak protein fractions are pooled and concentrated using Amicon Ultra-15 Centrifugal Filter Devices (Millipore).
The inhibitory properties of compounds relative to BTK is determined using a black 384-well-plate format in a buffer which contains 50 mM Hepes, 10 mM NaCl, 10 mM MgCl2, 0.2 mM EDTA, 0.01% Brij35®, 1 mM DTT, and 0.1 mg/mL BSA at pH 7.3. The test compound is prepared in DMSO using 2-fold serial dilutions for 11 data points, which are added to the buffer so that each dilution contains 3% DMSO. […] The reaction mixtures are incubated at room temperature for 60 minutes and then quenched by adding 25 μL of 50 mM EDTA. To quantify the fluorescent-labeled substrate and product following reaction, the test plate is loaded on a Caliper LC-3000, which measures percent of conversion by microfluidic-based separation.
The compounds were tested in accordance with the assay described on page 42 of the specification.

Chain of human BTK (Q06187 382-659): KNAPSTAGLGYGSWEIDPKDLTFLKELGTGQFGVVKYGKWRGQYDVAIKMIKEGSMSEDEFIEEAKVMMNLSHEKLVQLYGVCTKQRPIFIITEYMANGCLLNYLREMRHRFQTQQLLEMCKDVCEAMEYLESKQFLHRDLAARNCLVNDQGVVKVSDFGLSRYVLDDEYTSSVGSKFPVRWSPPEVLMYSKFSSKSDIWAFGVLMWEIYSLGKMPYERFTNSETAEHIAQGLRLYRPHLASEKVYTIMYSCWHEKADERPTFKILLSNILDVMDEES

IC50 [nM] | SMILES
< 6.31 | C=CC(=O)N1C[C@H](Oc2nc(-c3n[nH]c(=O)[nH]3)cc3ccccc23)[C@@H](C)C1 (racemic) [Example 19, 3-(1-(((3R,4S)-1-acryloyl-4-methylpyrrolidin-3-yl)oxy)isoquinolin-3-yl)-1H-1,2,4-triazol-5(4H)-one and 3-(1-(((3S,4R)-1-acryloyl-4-methylpyrrolidin-3-yl)oxy)isoquinolin-3-yl)-1H-1,2,4-triazol-5(4H)-one (mixture of enantiomers)]

Same assay, conditions: residues 382 to 659 of human BTK; 60 minutes at room temperature; pIC50 = -log(IC50), IC50 molar

BTK Inhibition (pIC50) | SMILES
>8.9 | C=CC(=O)N1CC[C@H](Oc2nc(-c3n[nH]c(=O)[nH]3)cc3cccc(Cl)c23)C1 [Example 27, (S)-3-(1-((1-acryloylpyrrolidin-3-yl)oxy)-8-chloroisoquinolin-3-yl) -1H-1,2,4-triazol-5(4H)-one]
>8.6 | C=CC(=O)N1CC[C@H](Nc2nc(-c3n[nH]c(=O)[nH]3)cc3cccnc23)C1 [Example 17, (S)-3-(8-((1-acryloylpyrrolidin-3-yl)amino)-1,7-naphthyridin-6-yl)-1H-1,2,4-triazol-5(4H)-one]
>8.6 | C=CC(=O)N1CC[C@H](Nc2nc(-c3n[nH]c(=O)[nH]3)cc3ccc(Cl)cc23)C1 [Example 26, (S)-3-(1-((1-acryloylpyrrolidin-3-yl)amino)-7-chloroisoquinolin-3-yl)-1H-1,2,4-triazol-5 (4H)-one]
8.0 | C=CC(=O)N1CCC[C@H]1COc1nc(-c2n[nH]c(=O)[nH]2)cc2ccccc12 [Example 7, (S)-3-(1-((1-acryloylpyrrolidin-2-yl)methoxy)isoquinolin-3-yl)-1H-1,2,4-triazol-5(4H)-one]
>7.9 | C=CC(=O)N1CCC[C@@H]1COc1nc(-c2n[nH]c(=O)[nH]2)cc2ccccc12 [Example 9, (R)-3-(1-((1-acryloylpyrrolidin-2-yl)methoxy)isoquinolin-3-yl)-1H-1,2,4-triazol-5(4H)-one]
>8.5 | C=CC(=O)N1CC[C@H](Oc2nc(-c3n[nH]c(=O)[nH]3)cc3cccnc23)C1 [Example 16, (S)-3-(8-((1-acryloylpyrrolidin-3-yl)oxy)-1,7-naphthyridin-6-yl)-1H-1,2,4-triazol-5(4H)-one]
>8.6 | C=CC(=O)N1C[C@H](Oc2nc(-c3n[nH]c(=O)[nH]3)cc3ccccc23)[C@@H](C)C1 [Example 20, 3-(1-(((3R,4S)-1-acryloyl-4-methylpyrrolidin-3-yl)oxy)isoquinolin-3-yl)-1H-1,2,4-triazol-5(4H)-one]
>8.2 | O=C(CCl)N1CC[C@H](Oc2nc(-c3n[nH]c(=O)[nH]3)cc3ccccc23)C1 [Example 33, (S)-5-(1-((1-(2-chloroacetyl)pyrrolidin-3-yl)oxy)isoquinolin-3-yl)-2,4-dihydro-3H-1,2,4-triazol-3-one]
7.5 | C=CC(=O)N1CCC[C@H](Oc2nc(-c3n[nH]c(=O)[nH]3)cc3ccccc23)C1 [Example 35, (S)-5-(1-((1-acryloylpiperidin-3-yl)oxy)isoquinolin-3-yl)-2,4-dihydro-3H-1,2,4-triazol-3-one]
>8.2 | C=CC(=O)N1CC[C@H](Oc2nc(-c3n[nH]c(=O)[nH]3)cc3ccc(F)cc23)C1 [Example 18, (S)-3-(1-((1-acryloylpyrrolidin-3-yl)oxy)-7-fluoroisoquinolin-3-yl)-1H-1,2,4-triazol-5(4H)-one]
>8.0 | C=CC(=O)N1CC[C@H](OCc2nc(-c3n[nH]c(=O)[nH]3)cc3ccccc23)C1 [Example 13, (S)-3-(1-(((1-acryloylpyrrolidin-3-yl)oxy)methyl)isoquinolin-3-yl)-1H-1,2,4-triazol-5(4H)-one]
6.9 | C=CC(=O)N1C[C@@H](C)[C@H](Oc2nc(-c3n[nH]c(=O)[nH]3)cc3ccccc23)C1 [Example 21, 3-(1-(((3S,4R)-1-acryloyl-4-methylpyrrolidin-3-yl)oxy)isoquinolin-3-yl)-1H-1,2,4-triazol-5(4H)-one]
7.2 | C=CC(=O)N1CC[C@H](Oc2cccc(-c3n[nH]c(=O)[nH]3)n2)C1 [Example 31, (S)-3-(6-((1-acryloylpyrrolidin-3-yl)oxy)pyridin-2-yl)-1H-1,2,4-triazol-5(4H)-one]
>8.6 | C=CC(=O)N1CC[C@H](Nc2nc(-c3n[nH]c(=O)[nH]3)cc3ccccc23)C1 [Example 8, (S)-3-(1-((1-acryloylpyrrolidin-3-yl)amino)isoquinolin-3-yl)-1H-1,2,4-triazol-5(4H)-one]
7.5 | C=C(C)C(=O)N1CC[C@H](Nc2nc(-c3n[nH]c(=O)[nH]3)cc3ccccc23)C1 [Example 10, (S)-3-(1-((1-methacryloylpyrrolidin-3-yl)amino)isoquinolin-3-yl)-1H-1,2,4-triazol-5(4H)-one]
>8.6 | C=CC(=O)N1CC[C@H](Oc2cc(C)cc(-c3n[nH]c(=O)[nH]3)n2)C1 [Example 30, (S)-3-(6-((1-acryloylpyrrolidin-3-yl)oxy)-4-methylpyridin-2-yl)-1H-1,2,4-triazol-5(4H)-one]
8.3 | C=CC(=O)N1CC[C@H](Oc2nc(-c3n[nH]c(=O)[nH]3)ccc2C)C1 [Example 32, (S)-3-(6-((1-acryloylpyrrolidin-3-yl)oxy)-5-methylpyridin-2-yl)-1H-1,2,4-triazol-5(4H)-one]
>8.1 | C=CC(=O)NC1CCN(c2nc(-c3n[nH]c(=O)[nH]3)cc3ccccc23)C1 (stereo not shown) [Example 4, N-(1-(3-(5-oxo-4,5-dihydro-1H-1,2,4-triazol-3-yl)isoquinolin-1-yl)pyrrolidin-3-yl)acrylamide]
>8.6 | C=CC(=O)N1CC[C@H](Nc2nc(-c3n[nH]c(=O)[nH]3)cc3cccc(OC)c23)C1 [Example 29, (S)-3-(1-((1-acryloylpyrrolidin-3-yl)amino)-8-methoxyisoquinolin-3-yl)-1H-1,2,4-triazol-5(4H)-one]
>8.6 | O=C(CCl)N1CC[C@H](Nc2nc(-c3n[nH]c(=O)[nH]3)cc3ccccc23)C1 [Example 34, (S)-5-(1-((1-(2-chloroacetyl)pyrrolidin-3-yl)amino)isoquinolin-3-yl)-2,4-dihydro-3H-1,2,4-triazol-3-one]
>8.7 | C=CC(=O)N1CC[C@H](Oc2nc(-c3n[nH]c(=O)[nH]3)cc3ccccc23)C1 [Example 5, (S)-3-(1-((1-acryloylpyrrolidin-3-yl)oxy)isoquinolin-3-yl)-1H-1,2,4-triazol-5(4H)-one]
>8.6 | C=CC(=O)N1CC[C@H](Nc2nc(-c3n[nH]c(=O)[nH]3)cc3ccc(F)cc23)C1 [Example 25, (S)-3-(1-((1-acryloylpyrrolidin-3-yl)amino)-7-fluoroisoquinolin-3-yl)-1H-1,2,4-triazol-5(4H)-one]

SMILES | BTK Inhibition (pIC50)
C=C(C)C(=O)N1CC[C@H](Oc2nc(-c3n[nH]c(=O)[nH]3)cc3ccccc23)C1 [Example 12, (S)-3-(1-((1-methacryloylpyrrolidin-3-yl)oxy)isoquinolin-3-yl)-1H-1,2,4-triazol-5(4H)-one] | 6.9
C=C(C)C(=O)N1CC[C@@H](Oc2nc(-c3n[nH]c(=O)[nH]3)cc3ccccc23)C1 [Example 1, (R)-3-(1-((1-methacryloylpyrrolidin-3-yl)oxy)isoquinolin-3-yl)-1H-1,2,4-triazol-5(4H)-one] | 6.7

Source: patent US9801872B2, “Pyridinyl and fused pyridinyl triazolone derivatives” (Takeda Pharmaceutical Company Limited, priority 2013, dated 2017)
